Test results reported in patent publication US11434242B2, “Dopamine-b-hydroxylase inhibitors” (BIAL-PORTELA & Cª, S.A., priority 2017, dated 2022).
Marks after values point to notes of the source that are not given here.

Target: T1, Dopamine beta hydroxylase (Homo sapiens, UniProt P09172)
T1 construct: 125 μl of plasma; tissue Instituto Português do Sangue Transplantação; host or cells: human plasma from healthy donors
T1 sequence (P09172 40-617 limits assumed): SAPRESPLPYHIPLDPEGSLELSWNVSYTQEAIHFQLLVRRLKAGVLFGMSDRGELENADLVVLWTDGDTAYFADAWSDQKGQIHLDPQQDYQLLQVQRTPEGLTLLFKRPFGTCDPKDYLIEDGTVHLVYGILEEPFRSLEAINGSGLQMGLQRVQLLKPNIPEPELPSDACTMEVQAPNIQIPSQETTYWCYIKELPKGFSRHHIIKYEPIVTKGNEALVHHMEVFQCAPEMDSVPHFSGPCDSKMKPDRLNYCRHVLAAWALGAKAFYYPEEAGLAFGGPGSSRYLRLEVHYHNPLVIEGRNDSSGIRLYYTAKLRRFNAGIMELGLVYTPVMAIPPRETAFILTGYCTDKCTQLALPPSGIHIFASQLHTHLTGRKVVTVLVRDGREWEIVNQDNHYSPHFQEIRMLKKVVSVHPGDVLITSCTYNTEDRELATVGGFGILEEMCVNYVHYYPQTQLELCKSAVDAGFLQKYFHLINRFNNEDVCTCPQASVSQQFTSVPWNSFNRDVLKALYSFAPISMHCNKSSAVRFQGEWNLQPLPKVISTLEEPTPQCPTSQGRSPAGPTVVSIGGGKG
Test: Dopamine beta hydroxylase activity in human plasma
Assay type: biochemical
Details: for Plasma (0.01 μM), activity in % of control / Plasma (0.01 μM), activity in % of control, re-test (asterisked): inhibitor 0.01 μM; for Plasma (0.1 μM), activity in % of control / Plasma (0.1 μM), activity in % of control, re-test (asterisked): inhibitor 0.1 μM; for Plasma (1 μM), activity in % of control: inhibitor 1 μM; for Plasma (0.01 μM), activity in % of control, re-test (asterisked) / Plasma (0.1 μM), activity in % of control, re-test (asterisked): re-tested under the same experimental conditions, asterisked data believed to be correct
In short: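 Healthy-donor human plasma pre-incubated 10 min at 37° C with compound at final 10, 100 or 1000 nM in pH 5.0 acetate buffer with ascorbate, fumarate, pargyline, N-ethylmaleimide, catalase and copper sulfate. Tyramine substrate then added for 45 min; octopamine formed was isolated by SCX cartridge, periodate-converted and read at 330 nm; activity given as % control.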

Plasma (0.01 μM), activity in % of control | Plasma (0.1 μM), activity in % of control | Plasma (1 μM), activity in % of control | Plasma (0.01 μM), activity in % of control, re-test (asterisked) | Plasma (0.1 μM), activity in % of control, re-test (asterisked) | Compound
– | 55.7 % of control | 10.3 % of control | – | – | O=C(Cc1[nH]c(=S)n2c1C[C@@H](c1c(F)c(F)cc(F)c1F)C2)NC1CCC1 [Example 99, (S)—N-cyclobutyl-2-(6-(2,3,5,6-tetrafluorophenyl)-3-thioxo-2,5,6,7-tetrahydro-3H-pyrrolo[1,2-c]imidazol-1-yl)acetamide]
78.6 % of control | 52.0 % of control | – | – | – | Cn1c(CC(=O)N[C@@H]2CCOC2)c2n(c1=S)C[C@H](c1cc(F)cc(F)c1)C2 [Example 425, 2-((S)-6-(3,5-difluorophenyl)-2-methyl-3-thioxo-2,5,6,7-tetrahydro-3H-pyrrolo[1,2-c]imidazol-1-yl)-N—((R)-tetrahydrofuran-3-yl)acetamide]
90.6 % of control | 65.7 % of control | – | – | – | O=C(Cc1[nH]c(=S)n2c1C[C@H](c1c(F)c(F)cc(F)c1F)C2)NC1COC1 [Example 393, (R)—N-(oxetan-3-yl)-2-(6-(2,3,5,6-tetrafluorophenyl)-3-thioxo-2,5,6,7-tetrahydro-3H-pyrrolo[1,2-c]imidazol-1-yl)acetamide]
63.1 % of control | 9.4 % of control | – | – | – | Cn1c(CC(=O)NCc2cnccn2)c2n(c1=S)C[C@H](c1c(F)ccc(Cl)c1F)C2 [Example 328, (S)-2-(6-(3-chloro-2,6-difluorophenyl)-2-methyl-3-thioxo-2,5,6,7-tetrahydro-3H-pyrrolo[1,2-c]imidazol-1-yl)-N-(pyrazin-2-ylmethyl)acetamide]
25.3 % of control | 2.2 % of control | – | – | – | CN(Cc1cnn(C)c1)C(=O)Cc1c2n(c(=S)n1C)C[C@H](c1c(F)ccc(Cl)c1F)C2 [Example 430, (S)-2-(6-(3-chloro-2,6-difluorophenyl)-2-methyl-3-thioxo-2,5,6,7-tetrahydro-3H-pyrrolo[1,2-c]imidazol-1-yl)-N-methyl-N-((1-methyl-1H-pyrazol-4-yl)methyl)acetamide]
46.6 % of control | 5.0 % of control | – | – | – | O=C(Cc1[nH]c(=S)n2c1C[C@@H](c1c(F)ccc(Br)c1F)C2)N1CCC2(CCOC2)C1 (stereo partly drawn) [Example 138, 2-((S)-6-(3-bromo-2,6-difluorophenyl)-3-thioxo-2,5,6,7-tetrahydro-3H-pyrrolo[1,2-c]imidazol-1-yl)-1-(2-oxa-7-azaspiro[4.4]nonan-7-yl)ethan-1-one]
82.2 % of control | 54.8 % of control | – | 46.0* % of control | 6.7* % of control | CN(C(=O)Cc1c2n(c(=S)n1C)C[C@H](c1c(F)ccc(Br)c1F)C2)C1CCOC1 (stereo partly drawn) [Example 252, 2-((S)-6-(3-bromo-2,6-difluorophenyl)-2-methyl-3-thioxo-2,5,6,7-tetrahydro-3H-pyrrolo[1,2-c]imidazol-1-yl)-N-methyl-N-(tetrahydrofuran-3-yl)acetamide]
56.6 % of control | 10.4 % of control | – | – | – | CN(C)C(=O)C1CCN(C(=O)Cc2c3n(c(=S)n2C)C[C@H](c2c(F)ccc(Br)c2F)C3)C1 (stereo partly drawn) [Example 453, 1-(2-((S)-6-(3-bromo-2,6-difluorophenyl)-2-methyl-3-thioxo-2,5,6,7-tetrahydro-3H-pyrrolo[1,2-c]imidazol-1-yl)acetyl)-N,N-dimethylpyrrolidine-3-carboxamide]
71.8 % of control | 24.6 % of control | – | – | – | Cn1c(CC(=O)N[C@@H]2CCCOC2)c2n(c1=S)C[C@@H](c1c(F)ccc(F)c1F)C2 [Example 255, 2-((R)-2-methyl-3-thioxo-6-(2,3,6-trifluorophenyl)-2,5,6,7-tetrahydro-3H-pyrrolo[1,2-c]imidazol-1-yl)-N—((R)-tetrahydro-2H-pyran-3-yl)acetamide]
105.9 % of control | 92.4 % of control | – | – | – | Cl.Cn1c(CCN2CCOCC2)c2n(c1=S)C[C@@H](c1c(F)c(F)cc(F)c1F)C2 [Example 257, (R)-2-methyl-1-(2-morpholinoethyl)-6-(2,3,5,6-tetrafluorophenyl)-2,5,6,7-tetrahydro-3H-pyrrolo[1,2-c]imidazole-3-thione Hydrochloride]

More lines, now with the values behind:

Compound | Plasma (0.01 μM), activity in % of control | Plasma (0.1 μM), activity in % of control | Plasma (1 μM), activity in % of control | Plasma (0.01 μM), activity in % of control, re-test (asterisked) | Plasma (0.1 μM), activity in % of control, re-test (asterisked)
C[C@@H](NCCc1[nH]c(=S)n2c1C[C@H](c1c(F)ccc(Br)c1F)C2)C1CCCCC1 [Example 184, (R)-6-(3-bromo-2,6-difluorophenyl)-1-(2-(((R)-1-cyclohexylethyl)amino)ethyl)-2,5,6,7-tetrahydro-3H-pyrrolo[1,2-c]imidazole-3-thione] | 89.2 % of control | 43.7 % of control | – | – | –
O=C(O)Cc1[nH]c(=S)n2c1[C@@H]1C[C@]1(c1cc(Br)ccc1F)C2 [Example 361, 2-((5aS,6aR)-5a-(5-bromo-2-fluorophenyl)-3-thioxo-2,3,5,5a,6,6a-hexahydrocyclopropa[3,4]pyrrolo[1,2-c]imidazol-1-yl)acetic Acid] | 60.0 % of control | 10.4 % of control | – | – | –
CN(C)C(=O)Cc1[nH]c(=S)n2c1[C@@H]1C[C@]1(c1cc(F)cc(Cl)c1)C2 [Example 69, 2-((5aS,6aR)-5a-(3-chloro-5-fluorophenyl)-3-thioxo-2,3,5,5a,6,6a-hexahydrocyclopropa[3,4]pyrrolo[1,2-c]imidazol-1-yl)-N,N-dimethylacetamide] | – | 82.1 % of control | 24.1 % of control | – | –
CS(=O)(=O)C1CCN(C(=O)Cc2[nH]c(=S)n3c2C[C@@H](c2c(F)ccc(Br)c2F)C3)C1 (stereo partly drawn) [Example 164, 2-((S)-6-(3-bromo-2,6-difluorophenyl)-3-thioxo-2,5,6,7-tetrahydro-3H-pyrrolo[1,2-c]imidazol-1-yl)-1-(3-(methylsulfonyl)pyrrolidin-1-yl)ethan-1-one] | 65.8 % of control | 17.1 % of control | – | – | –
CN(C(=O)Cc1[nH]c(=S)n2c1C[C@@H](c1c(F)ccc(Br)c1F)C2)C1CCOC1 (stereo partly drawn) [Example 167, 2-((S)-6-(3-bromo-2,6-difluorophenyl)-3-thioxo-2,5,6,7-tetrahydro-3H-pyrrolo[1,2-c]imidazol-1-yl)-N-methyl-N-(tetrahydrofuran-3-yl)acetamide] | 50.8 % of control | 3.2 % of control | – | 78.0* % of control | 28.0* % of control
O=C(Cc1[nH]c(=S)n2c1C[C@@H](c1c(F)ccc(Br)c1F)C2)NCCO [Example 93, (S)-2-(6-(3-bromo-2,6-difluorophenyl)-3-thioxo-2,5,6,7-tetrahydro-3H-pyrrolo[1,2-c]imidazol-1-yl)-N-(2-hydroxyethyl)acetamide] | – | 32.1 % of control | 1.0 % of control | – | –
Cn1c(CC(=O)N2CCCCC2)c2n(c1=S)C[C@@]1(c3cc(Br)ccc3F)C[C@@H]21 [Example 312, 2-((5aS,6aR)-5a-(5-bromo-2-fluorophenyl)-2-methyl-3-thioxo-2,3,5,5a,6,6a-hexahydrocyclopropa[3,4]pyrrolo[1,2-c]imidazol-1-yl)-1-(piperidin-1-yl)ethan-1-one] | 84.8 % of control | 51.7 % of control | – | 67.6* % of control | 15.0* % of control
Cn1c(CC(=O)NC2CCOCC2)c2n(c1=S)C[C@@]1(c3cc(Cl)ccc3F)C[C@@H]21 [Example 313, 2-((5aS,6aR)-5a-(5-chloro-2-fluorophenyl)-2-methyl-3-thioxo-2,3,5,5a,6,6a-hexahydrocyclopropa[3,4]pyrrolo[1,2-c]imidazol-1-yl)-N-(tetrahydro-2H-pyran-4-yl)acetamide] | 37.6 % of control | 9.6 % of control | – | – | –
O=C(Cc1[nH]c(=S)n2c1[C@@H]1C[C@]1(c1cc(Cl)ccc1F)C2)Nc1cccnc1 [Example 171, 2-((5aS,6aR)-5a-(5-chloro-2-fluorophenyl)-3-thioxo-2,3,5,5a,6,6a-hexahydrocyclopropa[3,4]pyrrolo[1,2-c]imidazol-1-yl)-N-(pyridin-3-yl)acetamide] | 40.4 % of control | 3.7 % of control | – | – | –
